SMILES strings stand for the structures.

In the first experiment the test system is Meriones unguiculatus. Nature of the experiment: Compound was evaluated for percentage clearance of Haemonchus contortus from jirds at dose of 25 mg/kg. The format is functional.
In turn, `CN1C(=O)C(=C(O)Nc2ccc(Br)cc2)C(=O)N(C)C1=O` came in with a Parasite_Clearance of 81%.

In the next experiment the test system is Meriones unguiculatus. Nature of the experiment: Compound was evaluated for percentage clearance of Haemonchus contortus from jirds at the dose of 68 mg/kg. The format is functional.
`O=C(Nc1ccc(Br)cc1)C1=C(O)[C@@H]2[C@H](C1=O)[C@@H]1C=C[C@H]2C1`: the Parasite_Clearance came out at 98%. For the compound `O=C(Nc1ccc(Br)cc1)c1c(O)c2ccccc2oc1=O`, the Parasite_Clearance came to 89%.

On to `Cc1cc(O)c(C(=O)Nc2ccc(Br)cc2)c(=O)o1`, for which the Parasite_Clearance was 76%. Take `O=C(Nc1ccc(Br)cc1)C1=C(O)c2ccccc2C1=O`: the Parasite_Clearance is on record as 100%. The same measure, in the same setting: with `O=C(Nc1ccc(Br)cc1)c1c(O)nc2sc(C(F)(F)F)nn2c1=O` the figure was 82%. The compound `Cn1c(=O)c(C(=O)Nc2ccc(Br)cc2)c(O)c2ccccc21` yielded a Parasite_Clearance of 81%. The same measure, in the same setting: with `O=C(Nc1ccc(Br)cc1)c1c(O)c2cccnc2oc1=O` the figure was 100%. With `O=C(Nc1ccc(Br)cc1)C1=C(O)C2C3C=CC(O3)C2C1=O` (stereo not given), the Parasite_Clearance worked out at 92%.

In the case of `CN1C(=O)C(=C(O)Nc2ccc(Br)cc2)C(=O)N(C)C1=O`, the Parasite_Clearance is 100%.

For the origin of these results see ChEMBL document CHEMBL1130685, “Anthelmintic beta-hydroxyketoamides (BKAs)” (1998).
